According to patent publication US20260235580A1, “P21-ACTIVATED KINASE 4 INHIBITION AND E-CADHERIN […] AND SCREENING METHOD THEREFOR” (priority 2023, published 2026):
Peptide text beside a SMILES is read from it. * marks the point of attachment. Cbz = O=C(OCc1ccccc1)*

Experiments:
Format in all cases: cell-based
ZEB1 = assay: Cycloheximide treatment of PANC-1 shCTRL/shPAK4 cells, western blot for ZEB1 (normalized by Vinculin); settings: 20 μg/mL cycloheximide
Experimental: (§1) Experiment Method: PANC-1 cells were treated with 20 μg/mL cycloheximide (CHX), harvested at designated time points, and detected by western blot for E-cadherin, ZEB1, and Vinculin antibodies (left side of FIG. 5A). Quantitative evaluation of E-cadherin and ZEB1 protein levels was performed (normalized by Vinculin, right side of FIG. 5A). SU.86.86 and PANC-1 cells were cultured overnight in 1% P/S/10% FBS/DMEM, then converted to DMEM without Ca2+, and cultured for a specific time. E-cadherin, ZEB1, and Vinculin were detected by western blot (top side of FIG. 5B). E-cadherin and ZEB1 protein levels were quantitatively assessed (normalized by Vinculin, bottom side of FIG. 5B). PANC-1 cells stably expressing shCTRL or shPAK4 were treated with specific concentrations of MG132 for 24 hours and then detected by western blot for E-cadherin, ZEB1, and Vinculin antibodies (left side of FIG. 5C). E-cadherin and ZEB1 protein levels were quantitatively assessed (normalized by Vinculin, right side of FIG. 5C), After PANC-1 cells stably expressing shCTRL or shPAK4 were cultured in a serum-free medium for a certain period of time, activated Cdc42 and Rac1 interacting with GST-PBD-agarose were harvested from whole cell proteins. The activity of Cdc42 and Rac1 was detected by western blot (FIG. 5D). […]

E-cadherin [1] = assay: Cycloheximide treatment of PANC-1 shCTRL/shPAK4 cells, western blot for E-cadherin (normalized by Vinculin); settings: 20 μg/mL cycloheximide
Experimental: as §1

E-cadherin [2] = assay: MG132 treatment of PANC-1 cells stably expressing shCTRL or shPAK4, western blot for E-cadherin (normalized by Vinculin); settings: specific concentrations of MG132 for 24 hours
Experimental: as §1

[3] = PANC-1 PAK4 knockdown (shPAK4) cells
[4] = PANC-1 shCTRL cells, harvested at designated time points

Row | SMILES | ZEB1 expression (ZEB1; [3]) | ZEB1 production (ZEB1; [4]) | E-cadherin expression (E-cadherin [1]; [3]) | E-cadherin production (E-cadherin [1]; [4]) | amount of protein of E-cadherin (E-cadherin [2]; [3]) | amount of protein of E-cadherin (E-cadherin [2]; PANC-1 shCTRL cells)
1 | C[C@@H]1C[C@@H]([C@H](O)CC2CC(=O)NC(=O)C2)C(=O)[C@@H](C)C1 [cyclohexamide, cycloheximide] | significantly reduced | inhibited | remained the same | inhibited |  | 
2 | CC(C)C[C@@H](C=O)NC(=O)[C@H](CC(C)C)NC(=O)[C@H](CC(C)C)NC(=O)OCc1ccccc1 [MG132] (Cbz-Leu-Leu-Leu-aldehyde) |  |  |  |  | such a pattern was not observed | decreased in a concentration-dependent manner
